# Molecular target: T1, sEH (Mus musculus, UniProt P34914)
# T1 construct: pilot in vivo study of the compound in male wild-type C57BL6/J mice; from tissue; host or cells: male wild-type C57BL/6J mice, in vivo; read-out in plasma
# T1 sequence (P34914 1-554): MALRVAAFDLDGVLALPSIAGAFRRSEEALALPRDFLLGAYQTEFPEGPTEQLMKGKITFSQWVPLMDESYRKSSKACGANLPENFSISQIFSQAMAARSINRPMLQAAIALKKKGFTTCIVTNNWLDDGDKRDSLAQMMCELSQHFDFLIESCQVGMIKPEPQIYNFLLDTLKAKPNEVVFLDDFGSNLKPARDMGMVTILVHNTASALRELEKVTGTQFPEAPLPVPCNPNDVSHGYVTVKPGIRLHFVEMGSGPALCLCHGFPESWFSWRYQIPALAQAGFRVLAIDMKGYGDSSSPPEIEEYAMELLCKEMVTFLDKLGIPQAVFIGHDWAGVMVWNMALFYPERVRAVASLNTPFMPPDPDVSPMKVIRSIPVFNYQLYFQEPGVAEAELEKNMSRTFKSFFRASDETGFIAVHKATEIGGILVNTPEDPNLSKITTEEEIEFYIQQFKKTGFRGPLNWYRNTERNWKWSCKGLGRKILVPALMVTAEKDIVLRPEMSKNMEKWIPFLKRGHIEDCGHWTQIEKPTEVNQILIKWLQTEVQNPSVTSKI
# Experiment: EET/DHET ratio in mouse plasma
# Type: in vivo
# Conditions: mice, 10 mg/kg p.o., 8 h post dose
# Method: To record a pharmacokinetic profile and to evaluate pharmacodynamic data concerning FXR activation and sEH inhibition in vivo, six mice received a single dose of 57 (p.o., 10 mg/kg body weight). Three additional animals served as vehicle control.
# To evaluate pharmacodynamic effects of 57, mouse plasma was analyzed for EET/DHET ratio, and FXR target gene expression was determined in mouse livers 8 hours post application (FIG. 5B). […] Expression of the PPARγ target gene fatty acid transport protein (FATP) was not affected by 57 in vivo.
# Blood and liver sampling: At six time points (15 min, 30 min, 60 min, 120 min, 240 min and 480 min after application of 57), blood (20 μl) of the six restrained and conscious mice was obtained from the lateral tail vein. For the last time-point (480 min), mice were anesthetized under isoflurane and blood (˜500 μl) was obtained by retro-orbital puncture. A part of the blood was centrifuged (6000 rpm, 10 min, +4° C.) to obtain plasma for quantification of EET/DHET ratio and stored at −80° C. until further evaluation. […]
# EET/DHET ratio analysis from mouse plasma samples (Determination of Epoxyeicosatrienoicacids (EETs) and their metabolites Dihydroxyepoxyeicosatrienoicacids (DHETs) by LCMS/MS): 8.9-EET, 11.12-EET and their dehydro-metabolites content of the extracted samples were analyzed employing liquid chromatography tandem mass spectroscopy (LC-MS/MS). […]
compound,measurement,setting,value
"CC(C)(C)c1ccc(C(=O)NCc2ccc(NS(C)(=O)=O)cc2Cl)cc1 [compound 57, 4-(tert-Butyl)-N-(2-chloro-4-(methylsulfonamido)benzyl)benzamide]","11,12-EET/11,12-DHET ratio in plasma",vehicle 0.15±0.01,0.25±0.03
same,"8,9-EET/8,9-DHET ratio in plasma",vehicle 0.40±0.03,0.63±0.03

# Source: patent US20200172473A1, “DUAL MODULATORS OF FARNESOID X RECEPTOR AND SOLUBLE EPOXIDE HYDROLASE” (JOHANN WOLFGANG GOETHE-UNIVERSITÄT FRANKFURT AM MAIN, priority 2017, published 2020)
